US20080176889A1, “9-anilinoacridine alkylating agents” (priority 2004, published 2008)
Structures can show the parent of a compound that is named as a salt. Where two headings read alike, the source gives them in different places.

Legend:
[1] = tested on: human lymphoblastic leukemic cells (CCRF-CEM); test: XTT-tetrazolium cytotoxicity assay, CCRF-CEM; type: cell-based
Description: (§1) The effects of the compounds on cell growth were determined in all human tumor cells (i.e. T-cell acute lymphocytic leukemia CCRF-CEM), in a 72 h incubation, by XTT-tetrazolium assay, as described by Scudiero et al., Cancer Res. 1988, 48, 4827-4833. After the addition of phenazine methosulfate-XTT solution at 37° C. for 6 h, absorbance at 450 and 630 nm was detected on a microplate reader (EL 340; Bio-Tek Instruments Inc., Winooski, Vt.). Six to seven concentrations of each compound were used. The IC50 and dose-effect relationships of the compounds for antitumor activity were calculated by a median-effect plot (see, e.g., Chou et al. Adv. Enzyme Regul. 1984, 22, 27-55) using a computer program on an IBM-PC workstation (see, e.g., Chou et al. Dose-Effect Analysis with Microcomputers: Quantitation of ED50, LD50, Synergism, Antagonism, Low-Dose Risk, Receptor-Ligands Binding and Enzyme Kinetics; Biosoft: Cambridge, U.K., 1987).

CCRF-CEM/VBL = test: XTT cytotoxicity assay, vinblastine-resistant subline; type: cell-based, human; settings: for IC50: Homo sapiens, CCRF-CEM, XTT, 72 hours incubation, read-out: IC50 CCRF-CEM/VBL; for folds of resistance CCRF-CEM/VBL vs CCRF-CEM parent cells: number in bracket, ratio of IC50's
Description: as §1
(§2) Data summarizing the growth inhibition of human lymphoblastic leukemic cells (CCRF-CEM) and its drug-resistant sublines (resistant to vinblastine and taxol, CCRF-CEM/VBL and CCRF-CEM/taxol, respectively) by compound 37 is shown in Table 4.

A549 = test: SRB cytotoxicity assay, solid tumor cells A549; type: cell-based, human; settings: for IC50: Homo sapiens, A549, SRB
CCRF-CEM/Taxol = test: XTT cytotoxicity assay, taxol-resistant subline; type: cell-based, human; settings: for IC50: Homo sapiens, CCRF-CEM, XTT, 72 hours incubation, read-out: IC50 CCRF-CEM/Taxol; for folds of resistance CCRF-CEM/Taxol vs CCRF-CEM parent cells: number in bracket, ratio of IC50's
Description: as §1, §2

HCT-116 = test: SRB cytotoxicity assay, solid tumor cells HCT-116; type: cell-based; settings: Homo sapiens, HCT-116; SRB, 72 hours incubation; read-out: IC50 HCT-116
Topo II = test: Topo II-mediated relaxation of pRYG-DNA; type: biochemical
[2] = 72 hours incubation, read-out: IC50 A549
[3] = incubation for 3 hours, washed, then incubated for a total of 72 hours (footnote b), read-out: IC50 A549 after washing
[4] = Homo sapiens, Table 4, XTT, 72 hours incubation, read-out: IC50 CCRF-CEM
[5] = Table 2, Type 2 compounds, 72 h incubation, XTT
[6] = Table 1, Type 1 compounds, 72 h incubation, XTT

In the case of `ClCCN(CCCl)CCOc1cccc(Nc2c3ccccc3nc3ccccc23)c1` [Compound 38, Acridin-9-yl-(3-{2-[bis(2-chloroethyl)amino]ethoxy}phenyl)amine], the IC50 ([1]; Homo sapiens, 72 h) is reported as 0.095 µM.
In the case of `CC[C@]1(O)C[C@@H]2CN(CCc3c([nH]c4ccccc34)[C@@](C(=O)OC)(c3cc4c(cc3OC)N(C)[C@H]3[C@@](O)(C(=O)OC)[C@H](OC(C)=O)[C@]5(CC)C=CCN6CC[C@]43[C@@H]65)C2)C1` [Vinblastine], the IC50 (CCRF-CEM/VBL) is reported as 0.54 µM, the “folds of resistance CCRF-CEM/VBL vs CCRF-CEM parent cells” value (from here on “folds of resistance CCRF-CEM/VBL”) (CCRF-CEM/VBL) is reported as 450 × and the IC50 (A549; [2]) is reported as 0.0081 µM. For the same compound, the IC50 (A549; [3]) was 0.095 µM, the IC50 (CCRF-CEM/Taxol) was 0.029 µM and the “folds of resistance CCRF-CEM/Taxol vs CCRF-CEM parent cells” value (shortened to “folds of resistance CCRF-CEM/Taxol”) (CCRF-CEM/Taxol) was 24.2 ×. For the same compound, the IC50 [1, 4] was 0.0012 µM and the IC50 (HCT-116) was 0.0014 µM.
`CCOC(=O)Nc1cc(CO)cc(Nc2c3ccccc3nc3c(OCCN(CCCl)CCCl)cccc23)c1` [Compound 51] showed an IC50 [1, 5] of 0.026 µM.
In the case of `Nc1cc(CO)cc(Nc2c3ccccc3nc3c(OCCN(CCCl)CCCl)cccc23)c1` [Compound 50, [3-Amino-5-(4-{2-[bis(2-chloroethyl)amino]ethoxy}acridin-9-ylamino)phenyl]methanol], the IC50 [1, 5] is reported as 0.0072 µM.
In the case of `Nc1cc(CO)cc(Nc2c3ccccc3nc3ccccc23)c1` [AHMA, 3-(9-acridinylamino)-5-hydroxymethylaniline], the IC50 (CCRF-CEM/VBL) is reported as 1.6 µM, the “folds of resistance CCRF-CEM/VBL” value (CCRF-CEM/VBL) is reported as 2.1 × and the IC50 (A549; [2]) is reported as 0.047 µM. For the same compound, the IC50 (A549; [3]) was 0.55 µM, the “reduction of potency when drug washed away” value (A549; similar conditions, drug washed away) was “about 12 fold” and the IC50 (CCRF-CEM/Taxol) was 0.6 ± 0.074 µM. For the same compound, the “folds of resistance CCRF-CEM/Taxol” value (CCRF-CEM/Taxol) was 0.8 ×, the IC50 ([1]; Homo sapiens, Table 1, Type 1 compounds, 72 h incubation, XTT, read-out: IC50) was 0.753 µM and the IC50 [1, 4] was 0.753 ± 0.378 µM.
For `Cc1cccc2c(Nc3cccc(CN(CCCl)CCCl)c3)c3cccc(C(=O)NCCN(C)C)c3nc12` [Compound 48, 9-(3-{[Bis(2-chloroethyl)amino]methyl}phenylamino)-5-methylacridine-4-carboxylic acid (2-dimethylaminoethyl)amide], the IC50 [1, 6] was 0.0017 µM.
Work on `ClCCN(CCCl)CCOc1ccc(Nc2c3ccccc3nc3c(OCCN(CCCl)CCCl)cccc23)cc1` [Compound 56, (4-[2-[Bis(2-chloroethyl)amino]ethoxy]acridin-9-yl)-(4-{2-[bis(2-chloroethyl)amino]-ethoxy}phenyl)amine] yielded an IC50 ([1]; Homo sapiens, 72 h) of 0.0173 µM.
In the case of `Cc1cccc2c(Nc3ccc(OCCN(CCCl)CCCl)cc3)c3cccc(C(=O)NCCN(C)C)c3nc12` [Compound 44, 9-(4-{2-[Bis(2-chloroethyl)amino]ethoxy}phenylamino)-5-methylacridin-4-carboxylic acid (2-dimethylaminoethyl)amide], the IC50 [1, 6] is reported as 0.773 µM.
`ClCCN(CCCl)CCCCOc1cccc(Nc2c3ccccc3nc3c(OCCN(CCCl)CCCl)cccc23)c1` [Compound 58] showed an IC50 ([1]; Table 3, Type 3 compounds, 72 h incubation, XTT, read-out: IC50) of 0.025 µM.
With `CC(=O)O[C@H]1C(=O)[C@@]2(C)[C@H]([C@H](OC(=O)c3ccccc3)[C@]3(O)C[C@H](OC(=O)[C@H](O)[C@@H](NC(=O)c4ccccc4)c4ccccc4)C(C)=C1C3(C)C)[C@]1(OC(C)=O)CO[C@@H]1C[C@@H]2O` [Taxol] the IC50 (CCRF-CEM/VBL) was 1.62 µM, the “folds of resistance CCRF-CEM/VBL” value (CCRF-CEM/VBL) was 1080 × and the IC50 (A549; [2]) was 0.0019 µM. The IC50 (A549; [3]) was 0.39 µM, the IC50 (CCRF-CEM/Taxol) was 0.143 ± 0.007 µM and the “folds of resistance CCRF-CEM/Taxol” value (CCRF-CEM/Taxol) was 95.3 ×. The IC50 [1, 4] was 0.0015 ± 0.0005 µM and the IC50 (HCT-116) was 0.0013 µM.
Compound `Nc1cc(CO)cc(Nc2c3ccccc3nc3c(OCCCCN(CCCl)CCCl)cccc23)c1` [Compound 52, [3-Amino-5-(4-{4-[bis-(2-chloroethyl)amino]butoxy}acridin-9-ylamino)phenyl]-methanol] has an IC50 [1, 5] of 0.0046 µM.
Compound `OCc1cc(O)cc(Nc2c3ccccc3nc3c(OCCN(CCCl)CCCl)cccc23)c1` [Compound 53, 3-(4-{2-[Bis-(2-chloroethyl)amino]ethoxy}acridin-9-ylamino)-5-hydroxymethylphenol] has an IC50 [1, 5] of 0.0061 µM.
`ClCCN(CCCl)CCCCOc1ccc(Nc2c3ccccc3nc3ccccc23)cc1` [Compound 41, Acridin-9-yl-(4-{4-[bis(2-chloroethyl)amino]buoxy}phenyl)amine] gave an IC50 ([1]; Homo sapiens, 72 h) of 0.061 µM.
In the case of `Cc1cccc2c(Nc3ccc(CN(CCCl)CCCl)cc3)c3cccc(C(=O)NCCN(C)C)c3nc12` [Compound 49, 9-(4-{[Bis(2-chloroethyl)amino]methyl}phenylamino)-5-methylacridin-4-carboxylic acid (2-dimethylaminoethyl)amide], the IC50 [1, 6] is reported as 0.0081 µM.
`ClCCN(CCCl)Cc1ccc(Nc2c3ccccc3nc3ccccc23)cc1` [Compound 47, Acridin-9-yl-(4-{[bis(2-chloroethyl)amino]methyl}phenyl)amine] gave an IC50 [1, 6] of 0.03 µM.
`ClCCN(CCCl)CCOc1cccc(Nc2c3ccccc3nc3c(OCCN(CCCl)CCCl)cccc23)c1` [Compound 54, (4-{2-[Bis-(2-chloroethyl)amino]ethoxy}acridin-9-yl)-(3-{2-[bis(2-chloroethyl)-amino]ethoxy}phenyl)amine] gave an IC50 ([1]; Homo sapiens, 72 h) of 0.0186 µM.
Work on `Cc1cccc2c(Nc3cccc(OCCCCN(CCCl)CCCl)c3)c3cccc(C(=O)NCCN(C)C)c3nc12` [Compound 43, 9-(3-{4-[Bis(2-chloroethyl)amino]butoxy}phenylamino)-5-methylacridin-4-carboxylic acid (2-dimethylaminoethyl)amide] yielded an IC50 [1, 6] of 0.0235 µM.
Compound `Cc1cccc2c(Nc3cccc(OCCN(CCCl)CCCl)c3)c3cccc(C(=O)NCCN(C)C)c3nc12` [Compound 42, 9-(3-{2-[Bis(2-chloroethyl)amino]ethoxy}phenylamino)-5-methylacridin-4-carboxylic acid (2-dimethylaminoethyl)amide] has an IC50 [1, 6] of 0.003 µM.
For `Cc1cccc2c(Nc3ccc(OCCN(CCCl)CCCl)cc3)c3cccc(C(=O)NCCN(C)C)c3nc12` (as salt: salt) [Compound 44, 9-(4-{2-[Bis(2-chloroethyl)amino]ethoxy}phenylamino)-5-methylacridin-4-carboxylic acid (2-dimethylaminoethyl)amide], the melting point was 185 to 186 °C.
`ClCCN(CCCl)CCCCOc1cccc(Nc2c3ccccc3nc3c(OCCN(CCCl)CCCl)cccc23)c1` [Compound 55] showed an IC50 ([1]; Homo sapiens, 72 h) of 0.006 µM.
In the case of `ClCCN(CCCl)Cc1cccc(Nc2c3ccccc3nc3ccccc23)c1` [Compound 46, Acridin-9-yl-(3-{[bis-(2-chloroethyl)amino]methyl}phenyl)amine], the IC50 [1, 6] is reported as 0.0074 µM.
`Cc1cccc2c(Nc3ccc(OCCCCN(CCCl)CCCl)cc3)c3cccc(C(=O)NCCN(C)C)c3nc12` [Compound 45, 9-(4-{4-[Bis(2-chloroethyl)amino]butoxy}phenylamino)-5-methylacridin-4-carboxylic acid (2-dimethylaminoethyl)amide] showed an IC50 [1, 6] of 0.023 µM.
In the case of `COc1cc([C@@H]2c3cc4c(cc3[C@@H](O[C@@H]3O[C@@H]5CO[C@@H](C)O[C@H]5[C@H](O)[C@H]3O)[C@H]3COC(=O)[C@H]23)OCO4)cc(OC)c1O` [VP-16], the “Topo II-mediated relaxation of pRYG-DNA” value (Topo II) is reported as “inhibited DNA relaxation”.
`ClCCN(CCCl)CCOc1ccc(Nc2c3ccccc3nc3ccccc23)cc1` [Compound 40, Acridin-9-yl-(4-{2-[bis(2-chloroethyl)amino]ethoxy}phenyl)amine] showed an IC50 ([1]; Homo sapiens, 72 h) of 0.02 µM.
In the case of `ClCCN(CCCl)CCCCOc1cccc(Nc2c3ccccc3nc3ccccc23)c1` [Compound 39, Acridin-9-yl-(3-{4-[bis(2-chloroethyl)amino]butoxy}phenyl)amine], the IC50 ([1]; Homo sapiens, 72 h) is reported as 0.456 µM.
With AHMA-tert-butylcarbamate the “Topo II-mediated relaxation of pRYG-DNA” value (Topo II) was “inhibited DNA relaxation”.
